From patent US20120046301A1, “Substituted Cyclic Carboxamide and Urea Derivatives as Ligands of the Vanilloid Receptor” (Gruenenthal GmbH, priority 2010, published 2012)

Assays:
[1] = target: T1, vanilloid receptor 1 (VR1/TRPV1 receptor) (Homo sapiens, UniProt Q8NER1); test: FLIPR assay, CHO K1 cells transfixed with the human VR1 gene, displacement of capsaicin (Pharmacological Method II); type: cell-based; conditions: capsaicin (Cap) 100 nM, Ki from IC50 by Cheng-Prusoff
T1 construct: expressed in transfected cells; host or cells: CHO K1 cells (ECACC), stably transfected
T1 sequence (Q8NER1 whole entry): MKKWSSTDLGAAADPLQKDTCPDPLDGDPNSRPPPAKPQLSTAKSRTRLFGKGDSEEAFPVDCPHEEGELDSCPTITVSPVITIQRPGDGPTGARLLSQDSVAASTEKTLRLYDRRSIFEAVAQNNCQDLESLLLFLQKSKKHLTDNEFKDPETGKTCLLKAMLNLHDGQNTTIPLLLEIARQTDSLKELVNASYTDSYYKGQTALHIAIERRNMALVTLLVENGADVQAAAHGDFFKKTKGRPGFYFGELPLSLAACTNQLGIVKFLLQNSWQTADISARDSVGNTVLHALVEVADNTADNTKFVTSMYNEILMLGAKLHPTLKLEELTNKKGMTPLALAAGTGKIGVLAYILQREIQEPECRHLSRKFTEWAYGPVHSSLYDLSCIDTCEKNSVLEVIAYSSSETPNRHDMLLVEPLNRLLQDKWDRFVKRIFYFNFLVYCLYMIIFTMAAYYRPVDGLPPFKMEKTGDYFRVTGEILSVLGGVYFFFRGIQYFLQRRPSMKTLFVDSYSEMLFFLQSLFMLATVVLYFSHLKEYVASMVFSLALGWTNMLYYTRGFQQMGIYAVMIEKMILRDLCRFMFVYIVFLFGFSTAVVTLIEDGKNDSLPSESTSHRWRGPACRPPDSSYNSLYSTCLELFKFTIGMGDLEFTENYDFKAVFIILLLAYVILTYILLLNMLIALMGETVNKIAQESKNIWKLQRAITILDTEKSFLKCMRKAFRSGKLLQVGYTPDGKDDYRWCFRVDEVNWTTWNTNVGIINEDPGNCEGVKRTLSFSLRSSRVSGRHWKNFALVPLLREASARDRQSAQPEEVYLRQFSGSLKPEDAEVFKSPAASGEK
Protocol: In addition compounds according to the invention of the general formula (I) may be preferred, that in the FLIPR assay with CHO K1 cells that have been transfixed with the human VR1 gene effect in a concentration of less than 2000 nM, preferably less than 1000 nM, particularly preferably less than 300 nM, most particularly preferably less than 100 nM, even more preferably less than 75 nM, still most preferably less than 50 nM, and most of all preferably less than 10 nM, a 50% displacement of capsaicin that is present in a concentration of 100 nM.
In this connection the Ca^2+ inflow is quantified in the FLIPR assay with the aid of a Ca^2+-sensitive dye (Type Fluo-4, Molecular Probes Europe BV, Leiden, Netherlands) in a fluorescent imaging plate reader (FLIPR, Molecular Devices, Sunnyvale, USA), as described hereinafter.
The agonistic and antagonistic action of the substances to be investigated on the vanilloid receptor (VR1) can also be determined with the following assay. According to this assay the Ca^2+ inflow through the channel is quantified in the Fluorescent Imaging Plate Reader (FLIPR, Molecular Devices, Sunnyvale, USA) with the aid of a Ca^2+ sensitive dye (Type Fluo-4, Molecular Probes, Europe BV, Leiden, Netherlands).
Chinese hamster ovary cells (CHO K1 cells, European Collection of Cell Cultures (ECACC) Great Britain) are stably transfixed with the VR1 gene. For the functional investigations these cells are plated out on poly-D-lysine-coated, black 96-well plates with a clear floor (BD Biosciences, Heidelberg, Germany) in a density of 25,000 cells/well. The cells are incubated overnight at 37° C. and 5% CO2 in a culture medium (Nutrient Mixture ‘am's F12, 10 Vol % FCS (fetal calf serum), 18 μg/ml L-proline. The following day the cells are incubated with Fluo-4 (Fluo-4 2 μM, Pluronic F127 0.01 Vol %, Molecular Probes in HBSS (Hank's buffered saline solution), Gibco Invitrogen GmbH, Karlsruhe, Germany) for 30 minutes at 37° C. The plates are then washed 3 times with HBSS buffer and, after a further incubation for 15 minutes at RT, used in the FLIPR assay for the Ca^2+ measurement. The Ca^2+-dependent fluorescence is in this connection measured both before and after addition of the substances to be investigated (wavelength λex=488 nm, λem=540 nm). The quantification is carried out by measuring the highest fluorescence intensity (FC, Fluorescence Counts) over time.
The FLIPR protocol consists of 2 additions of substances. First of all the compounds to be tested (10 μM) are pipetted onto the cells and the Ca^2+ inflow is compared with the control (capsaicin 10 μM) (% activation referred to the Ca^2+ signal after addition of 10 μM capsaicin). After 5 minutes' incubation 100 nM capsaicin are added and the inflow of Ca^2+ is again determined.
Desensitising agonists and antagonists lead to a suppression of the Ca^2+ inflow. The % inhibition compared to the maximum achievable inhibition with 10 μM capsaicin is calculated.
Starting from the percentage displacement caused by different concentrations of the compounds of the general formula I to be tested, IC50 inhibiting concentrations that produce a 50% displacement of capsaicin were calculated. K, values for the test substances were obtained by reconversion using the (Cheng, Prusoff; Biochem. Pharmacol. 22, 3099-3108, 1973) relationship.

male mice (NMRI) = test: Formalin test on mice (second phase); type: in vivo
Protocol: The investigation to determine the antinociceptic action of the compounds according to the invention is carried out in the formalin test on male mice (NMRI, 20 bis 30 g body weight, Iffa, Credo, Belgium).
According to D. Dubuisson et al., Pain 1977, 4, 161-174, in the formalin test the first (early) phases ([…] after the formalin injection) and the second (late) phase (15 to 60 minutes after the formalin injection) are different. The early phase, which is a direct reaction to the formalin injection, represents a model of acute pain, whereas the late phase is regarded as a model of persistent (chronic) pain (T. J. Coderre et al., Pain 1993, 52, 259-285). The corresponding literature descriptions are hereby incorporated by way of reference and count as part of the disclosure.
The compounds according to the invention are investigated in the second phase of the formalin test, in order to obtain information on the effects of substances on chronic/inflammation pain.
The administration time of the compounds according to the invention before the formalin injection is selected depending on the type of administration of the compounds according to the invention. The intravenous administration of 10 mg/kg body weight of the test substances is carried out 5 minutes before the formalin injection. […]
The nociceptive behaviour is then continuously assessed by observing the animals for an investigation period of 3 minutes in the (second) late phase of the formalin test (21 to 24 minutes after the formalin injection). The pain behaviour is quantified by counting the time in seconds during which the animals licked and bit the affected paw during the investigation period.
The comparison is made in each case with control animals, which receive instead of the compounds according to the invention a neutral vehicle (0.9% aqueous sodium chloride solution) before the formalin injection. Based on the quantification of the pain behaviour, the effect of the substance in the formalin test is measured as the change compared to the corresponding control. […]

Compound | Ki [1] [nM] | other results
O=C(NCc1cc(C(F)(F)F)nn1-c1cccc(Cl)c1)N1CCN(c2ccc(Cl)cc2)CC1 [Example 54, 4-(4-chlorophenyl)-N-((1-(3-chlorophenyl)-3-(trifluoromethyl)-1H-pyrazol-5-yl)methyl)piperazine-1-carboxamide] | 56 | –
O=C(NCc1cc(C(F)(F)F)nn1-c1cccc(Cl)c1)N1CCC(c2ccccc2)CC1 [Example 26, N-((1-(3-chlorophenyl)-3-(trifluoromethyl)-1H-pyrazol-5-yl)methyl)-4-phenylpiperidine-1-carboxamide] | 27 | –
CCCCCn1nc(C(F)(F)F)cc1CNC(=O)N1CCN(c2ncccc2Cl)CC1 [Example 12, 4-(3-chloropyridin-2-yl)-N-((1-pentyl-3-(trifluoromethyl)-1H-pyrazol-5-yl)methyl)piperazine-1-carboxamide] | 68 | –
O=C(NCc1cc(C2CC2)nn1-c1cccc(Cl)c1)N1CCN(c2ncccc2Cl)CC1 [Example 10, N-((1-(3-chlorophenyl)-3-cyclopropyl-1H-pyrazol-5-yl)methyl)-4-(3-chloropyridin-2-yl)piperazine-1-carboxamide] | 85 | –
CC(C)(C)c1cc(CNC(=O)N2CCN(c3ccc(Cl)cc3)CC2)n(-c2cccc(Cl)c2)n1 [Example 53, N-((3-tert-butyl-1-(3-chlorophenyl)-1H-pyrazol-5-yl)methyl)-4-(4-chlorophenyl)piperazine-1-carboxamide] | 42 | –
CC(C)(C)c1cc(CNC(=O)N2CCN(c3ccccc3F)CC2)n(-c2cccc(Cl)c2)n1 [Example 5, N-((3-tert-butyl-1-(3-chlorophenyl)-1H-pyrazol-5-yl)methyl)-4-(2-fluorophenyl)piperazine-1-carboxamide] | 5 | –
O=C(NCc1cc(C(F)(F)F)nn1-c1cccc(Cl)c1)N1CCN(c2ncccc2C(F)(F)F)CC1 [Example 56, N-((1-(3-chlorophenyl)-3-(trifluoromethyl)-1H-pyrazol-5-yl)methyl)-4-(3-(trifluoromethyl)pyridin-2-yl)piperazine-1-carboxamide] | 4 | –
N-((1-(3-chlorophenyl)-3-(trifluoromethyl)-1H-pyrazol-5-yl)methyl)-4-(1-(4-fluorophenyl)ethyl)piperazine-1-carboxamide [Example 22] | 41 | –
O=C(NCc1cc(C(F)(F)F)nn1-c1cccc(Cl)c1)N1CCN(c2ccccc2Cl)CC1 [Example 51, 4-(2-chlorophenyl)-N-((1-(3-chlorophenyl)-3-(trifluoromethyl)-1H-pyrazol-5-yl)methyl)piperazine-1-carboxamide] | 7 | –
CC(C)(C)c1cc(CNC(=O)N2CCN(c3cccc(Cl)c3)CC2)n(-c2cccc(Cl)c2)n1 [Example 52, N-((3-tert-butyl-1-(3-chlorophenyl)-1H-pyrazol-5-yl)methyl)-4-(3-chlorophenyl)piperazine-1-carboxamide] | 36 | –
O=C(NCc1cc(C(F)(F)F)nn1-c1cccc(Cl)c1)N1CCN(c2ccccc2F)CC1 [Example 46, N-((1-(3-chlorophenyl)-3-(trifluoromethyl)-1H-pyrazol-5-yl)methyl)-4-(2-fluorophenyl)piperazine-1-carboxamide] | 45 | –
O=C(NCc1cc(C(F)(F)F)nn1-c1cccc(Cl)c1)N1CC=C(c2ccc(F)cc2)CC1 [Example 34, N-((1-(3-chlorophenyl)-3-(trifluoromethyl)-1H-pyrazol-5-yl)methyl)-4-(4-fluorophenyl)-5,6-dihydropyridine-1(2H)-carboxamide] | 27 | –
CC(C)(C)c1cc(CNC(=O)N2CCN(c3ncccc3Cl)CC2)n(-c2cccc(Cl)c2)n1 [Example 2, N-((3-tert-butyl-1-(3-chlorophenyl)-1H-pyrazol-5-yl)methyl)-4-(3-chloropyridin-2-yl)piperazine-1-carboxamide] | 10 | FTm, p.o. % effect @ dose (mg/kg) (male mice (NMRI); dose 10.0 mg/kg): 1% @10.0; FTm, p.o. % effect @ dose (mg/kg) (male mice (NMRI); dose 30.0 mg/kg): 36% @30.0; FTm, p.o. % effect @ dose (mg/kg) (male mice (NMRI); dose 100.0 mg/kg): 66% @100.0
O=C(NCc1cc(C(F)(F)F)nn1-c1cccc(Cl)c1)N1CCN(c2ncccc2Cl)CC1 [Example 3, N-((1-(3-chlorophenyl)-3-(trifluoromethyl)-1H-pyrazol-5-yl)methyl)-4-(3-chloropyridin-2-yl)piperazine-1-carboxamide] | 14 | –
COc1ccc(N2CCN(C(=O)NCc3cc(C(F)(F)F)nn3-c3cccc(Cl)c3)CC2)cc1 [Example 50, N-((1-(3-chlorophenyl)-3-(trifluoromethyl)-1H-pyrazol-5-yl)methyl)-4-(4-methoxyphenyl)piperazine-1-carboxamide] | 63 | –
O=C(NCc1cc(C(F)(F)F)nn1-c1cccc(Cl)c1)N1CCN(c2ccc(F)cc2)CC1 [Example 47, N-((1-(3-chlorophenyl)-3-(trifluoromethyl)-1H-pyrazol-5-yl)methyl)-4-(4-fluorophenyl)piperazine-1-carboxamide] | 48 | –
COc1ccccc1N1CCN(C(=O)NCc2cc(C(F)(F)F)nn2-c2cccc(Cl)c2)CC1 [Example 48, N-((1-(3-chlorophenyl)-3-(trifluoromethyl)-1H-pyrazol-5-yl)methyl)-4-(2-methoxyphenyl)piperazine-1-carboxamide] | 61 | –
Cc1c(C(F)(F)F)nn(-c2cccc(Cl)c2)c1CNC(=O)N1CCN(c2ncccc2Cl)CC1 [Example 9, N-((1-(3-chlorophenyl)-4-methyl-3-(trifluoromethyl)-1H-pyrazol-5-yl)methyl)-4-(3-chloropyridin-2-yl)piperazine-1-carboxamide] | 16 | –
COc1cccc(N2CCN(C(=O)NCc3cc(C(F)(F)F)nn3-c3cccc(Cl)c3)CC2)c1 [Example 49, N-((1-(3-chlorophenyl)-3-(trifluoromethyl)-1H-pyrazol-5-yl)methyl)-4-(3-methoxyphenyl)piperazine-1-carboxamide] | 35 | –
